US20260355274A1 (Onkure, Inc., priority 2022, published 2026)
pIC50: −log10 of the molar value.

Columns and labels:
[1] = tested on: SKMEL2 melanoma cell line; experiment: 72 hour proliferation assay (CellTiter-Glo), SKMEL2 melanoma, NRAS mutated; type: cell-based; conditions: combined with binimetinib
Protocol: (§1) In particular, cells are grown in multi-well plates and incubated with the OKI-005 and binimetinib for 72 hours. The number of viable cells is determined by luminescence readout after the addition of CellTiter-Glo (CTG) dye.
In particular, in FIGS. 9A and 9B, cells are grown in multi-well plates and incubated with the OKI-005 and binimetinib for 72 hours. The number of viable cells is determined by luminescence readout after the addition of CellTiter-Glo (CTG) dye. SEM is the standard error of the mean, […]

[2] = tested on: AGS human gastric adenocarcinoma hyperdiploid cell line; experiment: 72 hour proliferation assay (CellTiter-Glo), AGS, KRAS G12D; type: cell-based
Protocol: as §1
(§2) FIGS. 12A, 12B and 12C illustrate the results of studies of the combination of OKI-005 with each of binimetinib, GDC-0994 and sotorasib in the NCI-H358 (NSCLC KRAS^G12C) cell line. FIGS. 12D, 12E and 12F illustrate the results of studies of the combination of OKI-005 with each of binimetinib, GDC-0994 and MRTX1133 (a KRAS^G12D Inhibitor) in the AGS (Gastric KRAS^G12D) cell line. […] In particular, cells are grown in multi-well plates and incubated with the OKI-005 and binimetinib for 72 hours. The number of viable cells is determined by luminescence readout after the addition of CellTiter-Glo (CTG) dye.

[3] = tested on: NCI-H358 non-small cell lung cancer cell line; experiment: 72 hour proliferation assay (CellTiter-Glo), NCI-H358, KRAS G12C; type: cell-based
Protocol: as §1, §2

[4] = tested on: human uveal melanoma cell line 92-1; experiment: 72 hour proliferation assay (CellTiter-Glo), uveal melanoma 92-1; type: cell-based; conditions: combined with binimetinib, GNAQ/11 Q209L
Protocol: as §1

[5] = tested on: human uveal melanoma cell line MP46; experiment: 72 hour proliferation assay (CellTiter-Glo), uveal melanoma MP46; type: cell-based; conditions: combined with binimetinib, GNAQ/11 Q209L
Protocol: as §1

[6] = tested on: RAS mutated cell lines and RAS WT cell lines; experiment: 72-hour proliferation assay, RAS mutated versus RAS wild-type cell lines; type: cell-based; conditions: combined with binimetinib, physiologically relevant concentrations, Day 3 compared to Day 0
From the text: . The RAS mutated cell lines and the RAS WT cell lines involved in this study represent conventional and well known cell lines for this purpose. See, e.g., FIG. 16.

[7] = tested on: MGMT-positive human tumor cell lines versus MGMT-negative human tumor cell lines; experiment: synergy in MGMT-positive versus MGMT-negative tumor cell lines; type: cell-based; conditions: combination with binimetinib compared to OKI-005 or binimetinib alone
[8] = metabolism to active compound; conditions: to OKI-006
From the text: The following figures are illustrative of specific embodiments of the invention and are not intended to otherwise limit the scope of the invention as described herein. OKI-005 is an in vitro optimized tool compound. […] In the figures, “bini” is equivalent to binimetinib (a MEK 1/2 inhibitor) and “enco” is equivalent to encorafenib (a BRAF inhibitor).

[9] = tested on: SKMEL2 xenograft; experiment: SKMEL2 NRAS mutated xenograft, tumor growth and regressions; type: in vivo, mouse; conditions: for tumor growth delay and regressions: single agent, SKMEL2 NRAS mutated xenograft
From the text: (§3) As used herein, “Son/2off” refers to a dosing schedule of 5 days on and 2 days off each week. […] Glyceraldehyde 3-phosphate dehydrogenase (GAPDH) was used as a control.

[10] = tested on: Ac-H3K9; experiment: Ac-H3K9 in SKMEL2 tumors (HDACi PD); type: in vivo; conditions: 2 hours post dose
From the text: as §3

[11] = tested on: HT29 BRAF^V600E colorectal (CRC) xenografts; experiment: HT29 BRAF V600E colorectal xenografts, regressions; type: in vivo, mouse; conditions: combined with binimetinib and encorafenib, following two weeks of dosing
[12] = mouse body weight change, HT29 xenograft study; type: in vivo; conditions: combined with binimetinib and encorafenib, up to 15 days after randomization
[13] = tested on: NCI-H358 KRAS^G12C non-small cell lung cancer xenografts; experiment: NCI-H358 KRAS G12C NSCLC xenografts, regressions; type: in vivo, mouse; conditions: combined with sotorasib, 50-day period after dosing
From the text: As used herein, “4on/3off” refers to a dosing schedule of 4 days on and 3 days off each week.

[14] = tested on: RAS-pathway mutated models; experiment: preclinical activity in RAS-pathway mutated models; type: in vivo; conditions: in combination with binimetinib
From the text: As an example of the frequency of mutations associated with various cancers, mutations in NRAS account for 20% of all melanomas and affect approximately 65,000 patients worldwide. Such melanomas have a tendency to be more aggressive than their wild-type counterparts and frequently have poor outcomes. Current therapies for NRAS-mutant melanoma remain limited, with little efficacy. No targeted therapies are currently available post PD1i.

[15] = tested on: advanced cancer patients; experiment: maximally-tolerated dose in advanced cancer patients; type: in vivo, human
From the text: It will be appreciated that appropriate dosages can vary from patient to patient. Determining the optimal dosage will generally involve the balancing of the level of therapeutic benefit against any risk or deleterious side effects of the treatments described herein. The selected dosage level will depend on a variety of factors including, but not limited to, the activity of the particular compound, the route of administration, the time of administration, the rate of excretion of the compound, the duration of the treatment, other drugs, compounds, or materials used in combination, and the age, sex, weight, condition, general health, and prior medical history of the patient. The amount(s) of the compound(s) administered and the route of administration will ultimately be at the discretion of a physician. […] On Schedule 2, the MTD was 200 mg daily on a continuous dosing regimen and on Schedule 3, the MTD was 300 mg for 5 days on and 2 days off each week.

[16] = tested on: patients with solid tumors; experiment: Phase 1 clinical trials in patients with solid tumors; type: in vivo, human; conditions: Phase 1, single agent, oral
[17] = tested on: mouse xenograft models; conditions: with binimetinib
[18] = target: HDAC 2 (Homo sapiens, UniProt Q92769); experiment: enzymatic inhibition of HDAC 2; type: biochemical
From the text: (§4) The mammalian HDACs can be divided into four classes depending on their sequence homology, sub-cellular distribution and catalytic activity. Class I, Il and IV HDACs have a Zn^2+ cofactor in the catalytic site. Class III HDACs contain sirtuins 1-7 and are NAD^+-dependent. Class I (HDACs 1, 2, 3 and 8) share the same homology as Rpd3 and are preliminarily distributed in the nucleus of normal cells. Class II HDACs can be subdivided into class IIa HDACs and class Ilb HDACs. Class IIa enzymes (HDAC 4, 5, 7 and 9) shuttle between the nucleus and cytoplasm and are located in specific tissues such as the brain, heart, and muscle. Class IIb (HDACs 6 and 10) are chiefly located in the cytoplasm.

[19] = target: HDAC 8 (Homo sapiens, UniProt Q9BY41); experiment: enzymatic inhibition of HDAC 8; type: biochemical
From the text: as §4

[20] = target: HDAC 4 (Homo sapiens, UniProt P56524); experiment: enzymatic inhibition of HDAC 4; type: biochemical
From the text: as §4

[21] = target: HDAC 5 (Homo sapiens, UniProt Q9UQL6); experiment: enzymatic inhibition of HDAC 5; type: biochemical
From the text: as §4

[22] = target: HDAC 7 (Homo sapiens, UniProt Q8WUI4); experiment: enzymatic inhibition of HDAC 7; type: biochemical
From the text: as §4

[23] = target: HDAC 9 (Homo sapiens, UniProt Q9UKV0); experiment: enzymatic inhibition of HDAC 9; type: biochemical
From the text: as §4

[24] = target: HDAC 6 (Homo sapiens, UniProt Q9UBN7); experiment: enzymatic inhibition of HDAC 6; type: biochemical
From the text: as §4

[25] = target: HDAC 10 (Homo sapiens, UniProt Q969S8); experiment: enzymatic inhibition of HDAC 10; type: biochemical; conditions: HDAC 10, Class IIb
From the text: as §4

[26] = target: HDAC 11 (Homo sapiens, UniProt Q96DB2); experiment: enzymatic inhibition of HDAC 11; type: biochemical; conditions: HDAC 11, Class IV
From the text: as §4

[27] = tested on: pERK; experiment: pERK in SKMEL2 tumors (MEKi PD); type: in vivo; conditions: 2 hours post dose
From the text: as §3

[28] = tested on: KRAS^G12C pancreatic cancer; conditions: single-agent RAS pathway inhibition; cited from earlier work
[29] = tested on: KRAS^G12C colorectal cancer (CRC); conditions: single-agent RAS pathway inhibition; cited from earlier work
[30] = tested on: BRAF^V600E melanoma; conditions: single-agent RAS pathway inhibition; cited from earlier work
[31] = tested on: BRAF^V600E colorectal cancer (CRC); conditions: single-agent RAS pathway inhibition; cited from earlier work
[32] = combined with binimetinib, 72 hours, KRAS

Chain of HDAC 2 (Q92769 whole entry): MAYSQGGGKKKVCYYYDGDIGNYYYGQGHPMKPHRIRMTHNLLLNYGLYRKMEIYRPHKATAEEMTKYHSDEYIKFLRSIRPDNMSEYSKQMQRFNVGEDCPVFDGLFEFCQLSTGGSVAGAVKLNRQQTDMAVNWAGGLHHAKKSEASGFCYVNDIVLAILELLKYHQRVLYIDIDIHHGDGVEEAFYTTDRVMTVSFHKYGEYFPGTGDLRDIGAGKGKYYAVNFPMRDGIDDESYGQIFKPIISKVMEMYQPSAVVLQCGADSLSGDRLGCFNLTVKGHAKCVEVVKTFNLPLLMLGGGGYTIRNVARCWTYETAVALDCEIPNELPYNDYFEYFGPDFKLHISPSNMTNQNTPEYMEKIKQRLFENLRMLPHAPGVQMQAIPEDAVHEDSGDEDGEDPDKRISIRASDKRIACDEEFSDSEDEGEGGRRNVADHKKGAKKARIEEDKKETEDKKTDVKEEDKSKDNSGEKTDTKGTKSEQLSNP
Chain of HDAC 5 (Q9UQL6 whole entry): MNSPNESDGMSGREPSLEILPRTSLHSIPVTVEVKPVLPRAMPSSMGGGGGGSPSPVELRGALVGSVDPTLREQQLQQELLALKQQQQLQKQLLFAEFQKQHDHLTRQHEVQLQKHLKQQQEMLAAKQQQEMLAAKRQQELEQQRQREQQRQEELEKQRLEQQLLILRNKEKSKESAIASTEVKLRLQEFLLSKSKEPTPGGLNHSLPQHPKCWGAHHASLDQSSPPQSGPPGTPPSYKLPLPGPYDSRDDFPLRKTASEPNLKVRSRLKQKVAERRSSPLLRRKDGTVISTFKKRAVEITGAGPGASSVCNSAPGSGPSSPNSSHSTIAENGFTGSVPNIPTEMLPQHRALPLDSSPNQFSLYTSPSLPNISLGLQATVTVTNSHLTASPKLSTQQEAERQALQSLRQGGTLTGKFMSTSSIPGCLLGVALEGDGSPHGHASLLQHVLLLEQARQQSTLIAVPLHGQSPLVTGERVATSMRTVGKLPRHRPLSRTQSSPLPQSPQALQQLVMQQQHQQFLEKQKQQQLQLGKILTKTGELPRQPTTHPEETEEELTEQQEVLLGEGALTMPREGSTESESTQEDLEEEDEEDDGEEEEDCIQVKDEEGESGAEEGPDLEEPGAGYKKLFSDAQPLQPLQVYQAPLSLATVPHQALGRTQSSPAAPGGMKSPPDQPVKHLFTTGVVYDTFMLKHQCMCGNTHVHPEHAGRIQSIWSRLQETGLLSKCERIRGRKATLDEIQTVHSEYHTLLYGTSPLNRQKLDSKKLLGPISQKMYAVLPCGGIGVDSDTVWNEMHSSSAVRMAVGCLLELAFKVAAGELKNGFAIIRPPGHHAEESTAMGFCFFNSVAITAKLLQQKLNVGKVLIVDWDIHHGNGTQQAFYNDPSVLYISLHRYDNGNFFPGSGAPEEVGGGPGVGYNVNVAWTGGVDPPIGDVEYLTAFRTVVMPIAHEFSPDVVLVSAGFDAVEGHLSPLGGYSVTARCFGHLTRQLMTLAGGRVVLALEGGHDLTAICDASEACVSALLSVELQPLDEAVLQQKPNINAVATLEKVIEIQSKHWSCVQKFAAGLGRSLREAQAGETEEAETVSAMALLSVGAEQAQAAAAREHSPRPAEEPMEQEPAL
Chain of HDAC 4 (P56524 whole entry): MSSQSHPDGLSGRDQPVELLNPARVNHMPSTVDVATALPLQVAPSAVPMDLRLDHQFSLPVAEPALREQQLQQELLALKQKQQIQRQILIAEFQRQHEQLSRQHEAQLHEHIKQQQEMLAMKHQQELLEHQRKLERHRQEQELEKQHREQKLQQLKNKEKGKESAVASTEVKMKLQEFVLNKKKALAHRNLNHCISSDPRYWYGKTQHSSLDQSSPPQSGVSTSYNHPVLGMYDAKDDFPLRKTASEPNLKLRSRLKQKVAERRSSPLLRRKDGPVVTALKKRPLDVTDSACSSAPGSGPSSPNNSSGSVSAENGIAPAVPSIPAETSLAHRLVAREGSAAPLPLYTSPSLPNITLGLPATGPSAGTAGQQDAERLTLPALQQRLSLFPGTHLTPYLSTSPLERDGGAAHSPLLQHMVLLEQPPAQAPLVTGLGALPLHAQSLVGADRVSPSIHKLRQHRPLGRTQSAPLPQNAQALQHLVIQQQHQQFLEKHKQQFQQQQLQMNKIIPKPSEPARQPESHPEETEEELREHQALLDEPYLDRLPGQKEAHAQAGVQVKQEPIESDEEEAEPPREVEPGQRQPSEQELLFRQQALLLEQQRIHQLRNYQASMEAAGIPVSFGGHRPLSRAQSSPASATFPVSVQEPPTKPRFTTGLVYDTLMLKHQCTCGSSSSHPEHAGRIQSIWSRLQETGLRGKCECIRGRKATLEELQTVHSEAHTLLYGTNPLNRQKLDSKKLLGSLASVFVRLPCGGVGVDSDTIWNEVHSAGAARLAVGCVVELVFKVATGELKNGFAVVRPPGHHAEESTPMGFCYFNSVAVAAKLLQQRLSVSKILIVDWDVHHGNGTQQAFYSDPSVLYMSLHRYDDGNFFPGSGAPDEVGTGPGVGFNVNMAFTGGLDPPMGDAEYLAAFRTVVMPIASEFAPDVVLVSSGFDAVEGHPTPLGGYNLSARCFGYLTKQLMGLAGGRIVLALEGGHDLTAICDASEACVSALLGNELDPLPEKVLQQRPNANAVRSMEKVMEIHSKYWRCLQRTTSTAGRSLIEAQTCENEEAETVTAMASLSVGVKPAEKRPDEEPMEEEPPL
Chain of HDAC 9 (Q9UKV0 whole entry): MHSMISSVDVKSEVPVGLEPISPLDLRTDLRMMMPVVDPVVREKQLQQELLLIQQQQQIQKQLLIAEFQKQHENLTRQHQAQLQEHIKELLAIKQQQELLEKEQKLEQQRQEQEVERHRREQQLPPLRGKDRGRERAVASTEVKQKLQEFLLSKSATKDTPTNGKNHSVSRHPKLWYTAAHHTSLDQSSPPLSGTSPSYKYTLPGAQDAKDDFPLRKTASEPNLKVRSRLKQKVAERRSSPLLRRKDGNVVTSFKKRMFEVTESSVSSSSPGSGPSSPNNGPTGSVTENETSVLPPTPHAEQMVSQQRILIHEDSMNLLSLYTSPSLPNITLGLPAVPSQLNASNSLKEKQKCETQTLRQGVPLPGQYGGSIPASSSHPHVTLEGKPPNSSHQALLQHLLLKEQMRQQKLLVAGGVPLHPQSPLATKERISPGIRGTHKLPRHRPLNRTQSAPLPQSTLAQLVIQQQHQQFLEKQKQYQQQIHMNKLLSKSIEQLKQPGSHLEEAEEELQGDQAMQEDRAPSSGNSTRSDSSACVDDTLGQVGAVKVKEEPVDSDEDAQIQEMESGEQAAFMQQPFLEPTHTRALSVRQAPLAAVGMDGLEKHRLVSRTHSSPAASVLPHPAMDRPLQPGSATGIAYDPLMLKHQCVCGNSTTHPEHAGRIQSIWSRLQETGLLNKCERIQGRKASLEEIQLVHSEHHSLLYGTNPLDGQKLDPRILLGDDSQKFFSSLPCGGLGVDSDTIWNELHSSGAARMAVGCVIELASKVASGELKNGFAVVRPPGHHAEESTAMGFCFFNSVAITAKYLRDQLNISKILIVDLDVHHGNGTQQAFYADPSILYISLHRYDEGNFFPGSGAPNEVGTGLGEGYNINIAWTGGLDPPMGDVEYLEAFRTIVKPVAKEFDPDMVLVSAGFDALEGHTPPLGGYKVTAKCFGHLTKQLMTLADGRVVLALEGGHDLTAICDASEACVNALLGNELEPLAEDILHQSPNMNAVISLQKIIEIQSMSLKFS
Chain of HDAC 8 (Q9BY41 whole entry): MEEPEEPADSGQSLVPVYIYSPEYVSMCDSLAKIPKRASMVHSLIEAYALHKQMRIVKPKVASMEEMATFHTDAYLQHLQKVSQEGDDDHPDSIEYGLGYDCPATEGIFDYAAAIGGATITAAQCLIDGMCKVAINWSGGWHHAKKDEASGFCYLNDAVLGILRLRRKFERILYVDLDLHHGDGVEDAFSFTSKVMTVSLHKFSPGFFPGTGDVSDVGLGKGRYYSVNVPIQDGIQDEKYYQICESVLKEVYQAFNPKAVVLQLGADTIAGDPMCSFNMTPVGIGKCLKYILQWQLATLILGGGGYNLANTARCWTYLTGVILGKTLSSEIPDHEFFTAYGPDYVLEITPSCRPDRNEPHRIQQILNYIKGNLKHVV
Chain of HDAC 11 (Q96DB2 whole entry): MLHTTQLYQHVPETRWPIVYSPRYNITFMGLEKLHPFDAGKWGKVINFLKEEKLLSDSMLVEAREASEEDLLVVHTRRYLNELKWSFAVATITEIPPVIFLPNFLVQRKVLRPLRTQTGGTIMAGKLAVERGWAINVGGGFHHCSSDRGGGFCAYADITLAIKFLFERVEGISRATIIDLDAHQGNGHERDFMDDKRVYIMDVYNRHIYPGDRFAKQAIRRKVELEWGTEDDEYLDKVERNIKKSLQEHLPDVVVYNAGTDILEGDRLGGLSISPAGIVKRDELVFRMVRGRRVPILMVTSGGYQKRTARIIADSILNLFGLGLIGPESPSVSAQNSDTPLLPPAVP

CCCCCCCC(=O)SCC/C=C/[C@@H]1CC(=O)NCc2nc(cs2)C(=O)NC(C)(C)C(=O)N[C@@H](C(C)C)C(=O)O1 [OKI-005]
anti-proliferative activity, synergy ([1]; 72 hours, NRAS): synergistic anti-proliferative activity | cell growth inhibition and cell death (PARP cleavage) ([1]; NRAS-mutated SKMEL2): significant cell growth inhibition and cell death | Loewe synergy ([2]; combined with GDC-0994, KRAS^G12D): combination synergy was observed in all cases | Loewe synergy ([2]; combined with MRTX1133, KRAS^G12D): combination synergy was observed in all cases | anti-proliferative activity, synergy [2, 32]: synergistic anti-proliferative activity | Loewe synergy ([2]; combined with binimetinib, 72 hours, KRAS^G12D): combination synergy was observed in all cases | Loewe synergy ([3]; combined with GDC-0994, KRAS^G12C): combination synergy was observed in all cases | anti-proliferative activity, synergy [3, 32]: synergistic anti-proliferative activity | Loewe synergy ([3]; combined with binimetinib, 72 hours, KRAS^G12C): combination synergy was observed in all cases | Loewe synergy ([3]; combined with sotorasib, KRAS^G12C): combination synergy was observed in all cases | anti-proliferative activity, synergy [4]: synergistic anti-proliferative activity | anti-proliferative activity, synergy [5]: synergistic anti-proliferative activity | synergy, RAS mutated compared to RAS wild-type [6]: a superior effect greater than that of either agent alone | synergistic effects in MGMT-positive versus MGMT-negative cell lines [7]: synergistic effects | metabolism to active compound [8]: metabolized to the same active compound, OKI-006

CC(C)[C@H](N)C(=O)SCC/C=C/[C@@H]1CC(=O)NCc2nc(cs2)C(=O)NC(C)(C)C(=O)N[C@@H](C(C)C)C(=O)O1.O=S(=O)(O)c1ccccc1 [OKI-179]
regressions ([9]; combination with binimetinib versus either single agent, following two weeks of dosing): significantly increased regressions compared to either single agent | tumor growth delay and regressions [9]: tumor growth delay, but few regressions | on-target PD activity, Ac-H3K9 (HDACi PD) [10]: strong on-target PD activity | regressions [11]: significantly increased regressions compared to either OKI-179 alone or the combination of binimetinib and encorafenib | mouse body weight loss [12]: greater weight loss than either OKI-179 alone or the combination of binimetinib and encorafenib | regressions [13]: significantly increased regressions compared to either OKI-179 or sotorasib alone | regressions [14]: regressions in multiple RAS-pathway mutated models | recommended Phase 2 dose (RP2D) ([15]; Schedule 1, oral, 4 days on and 3 days off each week): 300 mg | MTD ([15]; Schedule 1, oral, daily, 4 days on and 3 days off each week): 450 mg | MTD ([15]; Schedule 2, oral, daily, continuous dosing regimen): 200 mg | MTD ([15]; Schedule 3, oral, 5 days on and 2 days off each week): 300 mg | pharmacodynamic activity [16]: strong pharmacodynamic activity at tolerated doses | metabolism to active compound [8]: metabolized to the same active compound, OKI-006 | synergy at physiologically-relevant doses [17]: synergy associated with OKI-179 and binimetinib occurs at physiologically-relevant doses of OKI-179

C/C=C1\NC(=O)[C@@H](CS)NC(=O)[C@@H](C(C)C)NC(=O)C[C@@H](/C=C/CCS)OC(=O)[C@H](C(C)C)NC1=O [Red-FK228, reference compound]
pIC50 [18]: 9.00 | pIC50 [19]: < 6.00 | pIC50 [20]: 6.19 | pIC50 [21]: < 6.00 | pIC50 [22]: < 6.00 | pIC50 [23]: < 6.00 | pIC50 [24]: 6.65 | pIC50 [25]: 9.05 | pIC50 [26]: 9.52

Cn1cnc2c(F)c(Nc3ccc(Br)cc3F)c(C(=O)NOCCO)cc21 [binimetinib, reference compound]
tumor growth delay and regressions [9]: tumor growth delay, but few regressions | on-target PD activity, pERK (MEKi PD) [27]: strong on-target PD activity

C=CC(=O)N1CCN(c2nc(=O)n(-c3c(C)ccnc3C(C)C)c3nc(-c4c(O)cccc4F)c(F)cc23)[C@@H](C)C1 [sotorasib]
effectiveness [28]: relative ineffectiveness | effectiveness [29]: relative ineffectiveness

CCCS(=O)(=O)Nc1ccc(F)c(C(=O)c2c[nH]c3ncc(-c4ccc(Cl)cc4)cc23)c1F [vemurafenib]
effectiveness [30]: relative ineffectiveness | effectiveness [31]: relative ineffectiveness
